Laboratory results reported in ChEMBL document CHEMBL5252550, “DYRK1A kinase inhibition with emphasis on neurodegeneration: A comprehensive evolution story-cum-perspective” (Eur J Med Chem, 2018).
pIC50, pKi: −log10 of the molar value. Blank lines part the entries; values can stand above or below the compound they belong to.

What was measured:
[1] = target: Dual specificity tyrosine-phosphorylation-regulated kinase 1B (Homo sapiens, UniProt Q9Y463); experiment: Inhibition of DYRK1B (unknown origin)
Chain of Dual specificity tyrosine-phosphorylation-regulated kinase 1B (Q9Y463 whole entry): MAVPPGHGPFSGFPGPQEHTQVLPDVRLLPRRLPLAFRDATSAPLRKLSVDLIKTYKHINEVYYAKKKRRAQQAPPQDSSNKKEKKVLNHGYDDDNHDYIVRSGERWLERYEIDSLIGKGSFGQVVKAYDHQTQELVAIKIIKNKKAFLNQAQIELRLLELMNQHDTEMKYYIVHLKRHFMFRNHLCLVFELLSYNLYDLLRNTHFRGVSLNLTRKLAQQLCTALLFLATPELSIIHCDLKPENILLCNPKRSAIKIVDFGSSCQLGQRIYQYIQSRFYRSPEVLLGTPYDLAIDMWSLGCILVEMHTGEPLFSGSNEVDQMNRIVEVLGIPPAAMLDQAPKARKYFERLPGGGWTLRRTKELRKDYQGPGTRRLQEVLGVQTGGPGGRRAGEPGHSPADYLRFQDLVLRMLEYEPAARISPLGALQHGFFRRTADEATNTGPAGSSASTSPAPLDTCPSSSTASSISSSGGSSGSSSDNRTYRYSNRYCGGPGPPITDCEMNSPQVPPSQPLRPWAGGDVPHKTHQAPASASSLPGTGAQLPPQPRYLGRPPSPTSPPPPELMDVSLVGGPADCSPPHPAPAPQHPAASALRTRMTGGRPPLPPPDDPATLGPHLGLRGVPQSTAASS

[2] = target: T1, Dual specificity tyrosine-phosphorylation-regulated kinase 1A (Homo sapiens, UniProt Q13627); experiment: Inhibition of DYRK1A (unknown origin)
[3] = target: Acetylcholinesterase (Homo sapiens, UniProt P22303); experiment: Inhibition of AChE (unknown origin)
Chain of Acetylcholinesterase (P22303 whole entry): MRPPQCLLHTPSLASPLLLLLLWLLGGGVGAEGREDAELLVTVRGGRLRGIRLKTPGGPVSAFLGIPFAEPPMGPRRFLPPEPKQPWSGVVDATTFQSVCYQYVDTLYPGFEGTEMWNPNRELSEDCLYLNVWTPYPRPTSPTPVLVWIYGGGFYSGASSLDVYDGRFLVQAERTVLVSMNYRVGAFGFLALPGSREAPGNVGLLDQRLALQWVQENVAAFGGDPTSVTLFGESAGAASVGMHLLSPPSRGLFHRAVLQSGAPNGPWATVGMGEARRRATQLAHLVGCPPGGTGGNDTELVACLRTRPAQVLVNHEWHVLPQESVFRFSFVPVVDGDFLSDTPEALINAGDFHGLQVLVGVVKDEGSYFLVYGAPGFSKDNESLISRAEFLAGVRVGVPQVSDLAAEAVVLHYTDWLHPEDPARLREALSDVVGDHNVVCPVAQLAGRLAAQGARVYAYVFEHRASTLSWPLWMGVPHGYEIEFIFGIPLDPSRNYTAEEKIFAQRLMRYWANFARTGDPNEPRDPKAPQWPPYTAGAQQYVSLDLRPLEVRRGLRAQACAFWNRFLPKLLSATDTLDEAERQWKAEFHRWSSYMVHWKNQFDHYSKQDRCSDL

[4] = target: T2, Dual specificity tyrosine-phosphorylation-regulated kinase 2 (Homo sapiens, UniProt Q92630); experiment: Inhibition of DYRK2 (unknown origin)
T2 sequence (Q92630 whole entry): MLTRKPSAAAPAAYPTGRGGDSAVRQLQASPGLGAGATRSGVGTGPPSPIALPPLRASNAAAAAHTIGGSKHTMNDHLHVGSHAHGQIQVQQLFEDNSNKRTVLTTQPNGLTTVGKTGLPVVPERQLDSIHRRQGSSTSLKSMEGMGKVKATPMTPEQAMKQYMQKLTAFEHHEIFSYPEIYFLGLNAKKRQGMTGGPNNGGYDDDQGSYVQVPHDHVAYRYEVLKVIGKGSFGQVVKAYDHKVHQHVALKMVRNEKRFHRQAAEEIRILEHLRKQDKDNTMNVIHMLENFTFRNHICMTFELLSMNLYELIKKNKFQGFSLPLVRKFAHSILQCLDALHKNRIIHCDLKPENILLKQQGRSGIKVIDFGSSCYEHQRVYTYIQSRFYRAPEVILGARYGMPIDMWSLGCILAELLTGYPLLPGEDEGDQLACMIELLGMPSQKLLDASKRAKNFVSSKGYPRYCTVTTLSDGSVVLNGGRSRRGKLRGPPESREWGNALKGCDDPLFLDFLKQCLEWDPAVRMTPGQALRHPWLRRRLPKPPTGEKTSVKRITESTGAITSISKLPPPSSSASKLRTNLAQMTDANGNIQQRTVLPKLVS

[5] = target: T1, Dual specificity tyrosine-phosphorylation-regulated kinase 1A; experiment: Inhibition of DYRK1A (unknown origin) autophosphorylation
[6] = target: T1, Dual specificity tyrosine-phosphorylation-regulated kinase 1A; experiment: Inhibition of DYRK1A (unknown origin) in presence of ATP
[7] = target: T3, Dual specificity tyrosine-phosphorylation-regulated kinase 3 (Homo sapiens) (UniProt O43781); experiment: Inhibition of DYRK3 (unknown origin) at 10 uM relative to control
T3 sequence (whole entry): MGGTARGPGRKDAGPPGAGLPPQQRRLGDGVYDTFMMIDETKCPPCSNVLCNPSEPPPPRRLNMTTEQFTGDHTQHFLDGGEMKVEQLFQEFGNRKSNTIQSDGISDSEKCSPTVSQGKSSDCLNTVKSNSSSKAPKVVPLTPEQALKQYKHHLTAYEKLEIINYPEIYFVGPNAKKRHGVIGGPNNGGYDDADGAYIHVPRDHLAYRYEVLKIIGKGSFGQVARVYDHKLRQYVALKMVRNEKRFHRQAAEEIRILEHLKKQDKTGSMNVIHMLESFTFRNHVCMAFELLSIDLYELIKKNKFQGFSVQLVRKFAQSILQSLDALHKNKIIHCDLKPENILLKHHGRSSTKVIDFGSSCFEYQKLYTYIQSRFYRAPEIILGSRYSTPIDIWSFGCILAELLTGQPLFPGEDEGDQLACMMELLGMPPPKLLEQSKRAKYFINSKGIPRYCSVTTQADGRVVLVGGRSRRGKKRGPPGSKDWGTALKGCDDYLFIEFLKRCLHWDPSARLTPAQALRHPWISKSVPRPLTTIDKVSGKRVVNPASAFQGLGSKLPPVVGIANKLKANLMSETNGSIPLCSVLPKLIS

[8] = target: T4, Dual specificity tyrosine-phosphorylation-regulated kinase 2 (Homo sapiens) (UniProt Q92630); experiment: Inhibition of DYRK2 (unknown origin) at 10 uM relative to control
T4 sequence (whole entry): T2 sequence (Q92630 whole entry)

[9] = tested on: CCN1/C(=C/C(C)=O)Sc2ccc(O)cc21; experiment: Competitive inhibition of DYRK1A (unknown origin) assessed as michaelis-constant (Km); details: Homo sapiens
[10] = target: T1, Dual specificity tyrosine-phosphorylation-regulated kinase 1A; experiment: Binding affinity to DYRK1A (unknown origin) assessed as inhibition constant

Compound: COC(=N)c1nc2ccc3ncnc(Nc4ccc(Cl)cc4Cl)c3c2s1
pIC50 [1]: 6.55

Compound: CN1CCc2cc3c(c4c2C1Cc1ccccc1-4)OCO3 (stereo not drawn) [ROEMERINE]
pIC50 [2]: 4.82

Compound: CCC(=O)O[C@@H](C/C=C(\C)C(=O)OC)[C@H](C(=O)OC)[C@@H](OC(C)=O)[C@@H](C[C@H](C)[C@H](OC(=O)CC(C)C)[C@@H]1C[C@H](C)C[C@]2(C[C@H](C)C[C@](CC(C)=O)(OC(C)=O)O2)O1)OC(=O)CC(C)C
pIC50 [2]: < 5.00

Compound: COc1ccc2c(c1)[nH]c1c(C)nccc12 [HARMINE]
pIC50 [3]: 4.95
pIC50 [4]: 5.72

Compound: N=C1NC(=O)/C(=C/c2ccc3c(c2)CCO3)S1
pIC50 [2]: 8.10

Compound: CCN1/C(=C/C(C)=O)Sc2ccc(O)cc21
inhibition [7]: > 90%
inhibition [8]: > 90%

Compound: CCOc1cc(/C=C2\SC(=S)NC2=O)ccc1OC
pIC50 [2]: 7.22

Compound: Dual specificity tyrosine-phosphorylation-regulated kinase 1A (Homo sapiens) (from UniProt Q13627)
Km [9]: 37 µM

Compound: CCC(=O)O[C@@H](C/C=C(\C)C(=O)OC)[C@H](C(=O)OC)[C@@H](OC(C)=O)[C@@H](C[C@H](C)[C@H](OC(=O)CC(C)C)[C@@H]1C[C@H](C)C[C@]2(C[C@H](C)C[C@@](O)(CC(C)=O)O2)O1)OC(=O)CC(C)C
pIC50 [2]: < 5.00

Compound: COc1cccc(NC(=O)Nc2nnc(-c3ccncc3)s2)c1
pIC50 [5]: 5.60

The next lines start with the values.

pIC50 [1]: 6.66
Compound: COC(=N)c1nc2ccc3ncnc(Nc4ccc(Br)cc4F)c3c2s1

pIC50 [5]: 4.30
Compound: COc1cc(/C=C2\C(=O)NN(c3ccc(Cl)c(Cl)c3)C2=O)ccc1O

pIC50 [6]: 4.82
Compound: Cc1cc(=O)oc2cc3c([N+](=O)[O-])c(O)ccc3cc12

pKi [10]: 5.23
Compound: O=C1c2ccc(O)c(O)c2C(=O)c2c(O)ccc(O)c21 [QUINALIZARIN]

pIC50 [2]: 7.72
Compound: CO[C@H]1[C@H](O)[C@@H](O)[C@H](n2c3c(Cl)cccc3c3c4c(c5c6cccc(Cl)c6[nH]c5c32)C(=O)NC4=O)O[C@@H]1CO [REBECCAMYCIN]

pIC50 [6]: 6.22
Compound: Cc1cc(=O)oc2cc3cc(O)ccc3cc12
